The record followed here is US12098139B2, “Chemokine receptor modulators and uses thereof” (RAPT Therapeutics, Inc., priority 2018, dated 2024).

Bounds are passed on as bounds.

The assay concerns the target T1, hCCR4 (Chem5-hCCR4 cells) (Homo sapiens, UniProt P51679).
T1 sequence (P51679 1-360): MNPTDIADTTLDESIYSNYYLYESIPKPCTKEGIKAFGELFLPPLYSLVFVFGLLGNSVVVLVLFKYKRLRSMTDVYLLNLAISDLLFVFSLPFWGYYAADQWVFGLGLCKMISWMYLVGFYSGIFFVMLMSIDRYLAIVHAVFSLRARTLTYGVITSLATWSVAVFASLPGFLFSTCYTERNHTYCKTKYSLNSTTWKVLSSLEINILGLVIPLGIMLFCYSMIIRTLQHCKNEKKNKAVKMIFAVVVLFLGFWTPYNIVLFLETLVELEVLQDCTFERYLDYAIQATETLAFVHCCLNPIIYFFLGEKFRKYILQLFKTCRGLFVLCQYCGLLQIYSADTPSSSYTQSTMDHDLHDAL
The assay can be described thus: Calcium flux assay (CCL22-stimulated, FLIPR Calcium 6 dye). The class given is cell-based. The conditions noted are these: Table 3, CCL22 1.5 nM, read-out: Potency (IC50). The method, then: Calcium Flux Assay. Compounds were evaluated in a calcium flux assay substantially performed as follows. Chem5-hCCR4 cells (EMD Millipore, Hayward, CA; HTS009C) were cultured under standard conditions and frozen in aliquots of 10×10^6 cells/mL. The day prior to compound testing, a vial was rapidly thawed and pipetted into 20 mL media (DMEM+10% FBS+1% Pen-Strep+1% L-glutamine). Cells were harvested by centrifugation and re-suspended in fresh culture medium. 25 μL of cell suspension was seeded into 384-well plates (Corning, Tewksbury, MA; CellBind with black wall/clear bottom). The plates were centrifuged at 300 g for 10 seconds and incubated overnight at 37° C. and 5% CO2. The day of compound testing, media was removed from the plates and 25 μL serum free media was added to each well. Plates were returned to the incubator for 2 h. 25 μL assay buffer (Hank's balanced salt solution+20 mM HEPES pH 7.4) containing FLIPR Calcium 6 dye (Molecular Devices, Sunnyvale, CA; #R8191) and probenecid (2.5 mM) was added to each well and incubated at 37° C. and 5% CO2 for 2 h. Compounds in DMSO were added to the plates using an HP D300e digital dispenser, and all wells were normalized to contain 0.25 μL (0.5%) DMSO. Plates were incubated for 1 hour at 37° C. and 5% CO2. CCL22 (Peprotech; Rockyhill, NJ) was diluted in assay buffer containing 0.1% BSA to 7.5 nM (corresponding to 5×EC80 of 1.5 nM).
Assay plates and working solution of CCL22 were transferred to the FlexStation plate reader (Molecular Devices) at 37° C. for 5 min of equilibration. Fluorescence recordings at 485 excitation/525 emission were performed at 2.5 second intervals. At t=16 seconds, 12.5 μL of CCL22 solution was added to each well and reads continued for 30 seconds at 2.5 second intervals. The minimum fluorescence (Fmin) was calculated by averaging the reads prior to ligand addition and the change in fluorescence (ΔF) was calculated by subtracting the Fmin from the average of the reads following ligand addition. The response ΔF/Fmin was plotted as a function of the compound concentration and the IC50 values were determined by non-linear regression analysis using a 4-parameter fit in either PRISM software (GraphPad; La Jolla, CA) or Dotmatics Browser.
(Calcium assays in cells follow changes in intracellular calcium, usually with a dye or a luminescent sensor.)
As to `C[C@@H](Nc1nc(N2CC([C@H]3CCCN(CCO)C3)C2)ncc1Cl)c1ccc(Cl)cc1Cl` [Example 10, 2-((R)-3-(1-(5-chloro-4-(((R)-1-(2,4-dichlorophenyl)ethyl)amino)pyrimidin-2-yl)azetidin-3-yl)piperidin-1-yl)ethan-1-ol], the IC50 was less than 100 nM.
For `C[C@@H](Nc1nc(N2CC([C@H]3CCCN(CCO)C3)C2)ncc1Br)c1ccc(Cl)cc1Cl` [Example 11, 2-((R)-3-(1-(5-bromo-4-(((R)-1-(2,4-dichlorophenyl)ethyl)amino)pyrimidin-2-yl)azetidin-3-yl)piperidin-1-yl)ethan-1-ol] the value was less than 100 nM; for `C[C@@H](Nc1nc(N2CC([C@H]3CCCN([C@H]4C[C@](C)(C(=O)O)C4)C3)C2)ncc1Cl)c1ccc(Cl)cc1Cl` [Example 12, (1R,3r)-3-((R)-3-(1-(5-chloro-4-(((R)-1-(2,4-dichlorophenyl)ethyl)amino)pyrimidin-2-yl)azetidin-3-yl)piperidin-1-yl)-1-methylcyclobutane-1-carboxylic acid], less than 100 nM.
Take `C[C@@H](Nc1nc(N2CC([C@H]3CCCN([C@H]4C[C@](C)(C(=O)O)C4)C3)C2)ncc1Br)c1ccc(Cl)cc1Cl` [Example 13, (1R,3r)-3-((R)-3-(1-(5-bromo-4-(((R)-1-(2,4-dichlorophenyl)ethyl)amino)pyrimidin-2-yl)azetidin-3-yl)piperidin-1-yl)-1-methylcyclobutane-1-carboxylic acid]: the IC50 is less than 100 nM.
For `C[C@@H](Nc1nc(N2CC([C@H]3CCCN(CCO)C3)C2)ncc1C#N)c1ccc(Cl)cc1Cl` [Example 14, 4-(((R)-1-(2,4-dichlorophenyl)ethyl)amino)-2-(3-((R)-1-(2-hydroxyethyl)piperidin-3-yl)azetidin-1-yl)pyrimidine-5-carbonitrile] the value was less than 100 nM; for `C[C@@H](Nc1nc(N2CC([C@H]3CCCN(CCO)C3)C2)ncc1C(F)(F)F)c1ccc(Cl)cc1Cl` [Example 15, 2-((R)-3-(1-(4-(((R)-1-(2,4-dichlorophenyl)ethyl)amino)-5-(trifluoromethyl)pyrimidin-2-yl)azetidin-3-yl)piperidin-1-yl)ethan-1-ol], greater than 500 nM; for `Cc1cnc(N2CC([C@H]3CCCN(CCN4CCCC4=O)C3)C2)nc1N[C@H](C)c1ccc(Cl)cc1Cl` [Example 16, 1-(2-((R)-3-(1-(4-(((R)-1-(2,4-dichlorophenyl)ethyl)amino)-5-methylpyrimidin-2-yl)azetidin-3-yl)piperidin-1-yl)ethyl)pyrrolidin-2-one], less than 100 nM.
Consider `Cc1cnc(N2CC([C@H]3CCCN([C@H]4C[C@@H](C(=O)O)C4)C3)C2)nc1N[C@H](C)c1ccc(Cl)cc1Cl` [Example 17, (1S,3s)-3-((R)-3-(1-(4-(((R)-1-(2,4-dichlorophenyl)ethyl)amino)-5-methylpyrimidin-2-yl)azetidin-3-yl)piperidin-1-yl)cyclobutane-1-carboxylic acid], for which the IC50 was less than 100 nM.
For `Cc1cnc(N2CC([C@H]3CCCN(C4CC(CO)C4)C3)C2)nc1N[C@H](C)c1ccc(Cl)cc1Cl` (stereo partly drawn) [Example 18, (3-((R)-3-(1-(4-(((R)-1-(2,4-dichlorophenyl)ethyl)amino)-5-methylpyrimidin-2-yl)azetidin-3-yl)piperidin-1-yl)cyclobutyl)methanol] the value was less than 100 nM.
With `Cc1cnc(N2CC([C@H]3CCCN(CC(C)(C)O)C3)C2)nc1N[C@H](C)c1ccc(Cl)cc1Cl` [Example 19, 1-((R)-3-(1-(4-(((R)-1-(2,4-dichlorophenyl)ethyl)amino)-5-methylpyrimidin-2-yl)azetidin-3-yl)piperidin-1-yl)-2-methylpropan-2-ol] the figure was less than 100 nM.
For `C[C@@H](Nc1nc(N2CC([C@H]3CCCN([C@H]4C[C@](C)(C(=O)O)C4)C3)C2)nc2c1CCC2)c1ccc(Cl)cc1Cl` [Example 20, (1R,3r)-3-((R)-3-(1-(4-(((R)-1-(2,4-dichlorophenyl)ethyl)amino)-6,7-dihydro-5H-cyclopenta[d]pyrimidin-2-yl)azetidin-3-yl)piperidin-1-yl)-1-methylcyclobutane-1-carboxylic acid] the value was less than 100 nM; for `C[C@]1(C(=O)O)C[C@H](N2CCC[C@H](C3CN(c4ncc(Cl)c(NCc5ccc(Cl)cc5Cl)n4)C3)C2)C1` [Example 21, (1R,3r)-3-((R)-3-(1-(5-chloro-4-((2,4-dichlorobenzyl)amino)pyrimidin-2-yl)azetidin-3-yl)piperidin-1-yl)-1-methylcyclobutane-1-carboxylic acid], greater than 500 nM; for `Cc1nc(N2CC([C@H]3CCCN([C@H]4C[C@](C)(C(=O)O)C4)C3)C2)nc(N[C@H](C)c2ccc(Cl)cc2Cl)c1C` [Example 22, (1R,3r)-3-((R)-3-(1-(4-(((R)-1-(2,4-dichlorophenyl)ethyl)amino)-5,6-dimethylpyrimidin-2-yl)azetidin-3-yl)piperidin-1-yl)-1-methylcyclobutane-1-carboxylic acid], less than 100 nM.
Regarding `CC[C@]1(C(=O)O)C[C@H](N2CCC[C@H](C3CN(c4ncc(Cl)c(N[C@H](C)c5ccc(Cl)cc5Cl)n4)C3)C2)C1` [Example 23, (1R,3s)-3-((R)-3-(1-(5-chloro-4-(((R)-1-(2,4-dichlorophenyl)ethyl)amino)pyrimidin-2-yl)azetidin-3-yl)piperidin-1-yl)-1-ethylcyclobutane-1-carboxylic acid], the IC50 lay within 100 to 500 nM.
With `C[C@@H](Nc1nc(N2CC([C@H]3CCCN(CCO)C3)C2)nc2c1CCC2)c1ccc(Cl)cc1Cl` [Example 24, 2-((R)-3-(1-(4-(((R)-1-(2,4-dichlorophenyl)ethyl)amino)-6,7-dihydro-5H-cyclopenta[d]pyrimidin-2-yl)azetidin-3-yl)piperidin-1-yl)ethan-1-ol] the figure was 100 to 500 nM.
With `C[C@@H](Nc1nc(N2CC([C@H]3CCCN([C@H]4C[C@@H](C(=O)O)C4)C3)C2)nc2ccccc12)c1ccc(Cl)cc1Cl` [Example 25, (1S,3s)-3-((R)-3-(1-(4-(((R)-1-(2,4-dichlorophenyl)ethyl)amino)quinazolin-2-yl)azetidin-3-yl)piperidin-1-yl)cyclobutane-1-carboxylic acid] the figure was less than 100 nM; with `C[C@@H](Nc1nc(N2CC([C@H]3CCCN(CCO)C3)C2)nc2ccccc12)c1ccc(Cl)cc1Cl` [Example 26, 2-((R)-3-(1-(4-(((R)-1-(2,4-dichlorophenyl)ethyl)amino)quinazolin-2-yl)azetidin-3-yl)piperidin-1-yl)ethan-1-ol], less than 100 nM.
With `C[C@@H](Nc1nc(N2CC([C@H]3CCCN([C@H]4C[C@@](C)(C(=O)O)C4)C3)C2)nc2ccccc12)c1ccc(Cl)cc1Cl` [Example 27, (1S,3s)-3-((R)-3-(1-(4-(((R)-1-(2,4-dichlorophenyl)ethyl)amino)quinazolin-2-yl)azetidin-3-yl)piperidin-1-yl)-1-methylcyclobutane-1-carboxylic acid] the figure was less than 100 nM; with `C[C@@H](Nc1nc(N2CC([C@H]3CCCN([C@H]4C[C@](C)(C(=O)O)C4)C3)C2)nc2ccsc12)c1ccc(Cl)cc1Cl` [Example 28, (1R,3r)-3-((R)-3-(1-(4-(((R)-1-(2,4-dichlorophenyl)ethyl)amino)thieno[3,2-d]pyrimidin-2-yl)azetidin-3-yl)piperidin-1-yl)-1-methylcyclobutane-1-carboxylic acid], less than 100 nM; with `C[C@@H](Nc1nc(N2CC([C@H]3CCCN([C@H]4C[C@](C)(C(=O)O)C4)C3)C2)nc2sccc12)c1ccc(Cl)cc1Cl` [Example 29, (1R,3r)-3-((R)-3-(1-(4-(((R)-1-(2,4-dichlorophenyl)ethyl)amino)thieno[2,3-d]pyrimidin-2-yl)azetidin-3-yl)piperidin-1-yl)-1-methylcyclobutane-1-carboxylic acid], less than 100 nM.

One may read the IC50 as the midpoint of a concentration-inhibition curve.
